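Step 1: Grow cells in 96-well plates. Step 2: Expose to compound for 48 hours at 5 concentrations. Step 3: Interpolate endpoints linearly; if unreached, use highest concentration. GI50 = concentration required for 50% inhibition of growth. TGI denotes the concentration required for complete inhibition of growth.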
What was measured:
Test in all cases: NCI tumour cell line growth inhibition, 48 h
786-0 renal = test system: 786-0 renal
A498 renal = test system: A498 renal
A549 NSCLC = test system: A549 NSCLC
ACHN renal = test system: ACHN renal
BT-549 breast = test system: BT-549 breast
CAKI-1 renal = test system: CAKI-1 renal
CCRF-CEM leukemia = test system: CCRF-CEM leukemia
COLO 205 colon = test system: COLO 205 colon
DU-145 prostate = test system: DU-145 prostate
EKVX NSCLC = test system: EKVX NSCLC
HCC-2998 colon = test system: HCC-2998 colon
HCT-116 colon = test system: HCT-116 colon
HCT-15 colon = test system: HCT-15 colon
HL-60(TB) leukemia = test system: HL-60(TB) leukemia
HOP-62 NSCLC = test system: HOP-62 NSCLC
HOP-92 NSCLC = test system: HOP-92 NSCLC
HS 578T breast = test system: HS 578T breast
HT29 colon = test system: HT29 colon
IGROV1 ovarian = test system: IGROV1 ovarian
K-562 leukemia = test system: K-562 leukemia
KM12 colon = test system: KM12 colon
LOX IMVI melanoma = test system: LOX IMVI melanoma
MALME-3M melanoma = test system: MALME-3M melanoma
MCF7 breast = test system: MCF7 breast
MDA-MB-231 breast = test system: MDA-MB-231 breast
MDA-MB-435 = test system: MDA-MB-435
MOLT-4 leukemia = test system: MOLT-4 leukemia
NCI-H226 lung = test system: NCI-H226 lung
NCI-H23 lung = test system: NCI-H23 lung
NCI-H460 lung = test system: NCI-H460 lung
NCI-H522 lung = test system: NCI-H522 lung
NCI/ADR-RES ovarian = test system: NCI/ADR-RES ovarian
OVCAR-3 ovarian = test system: OVCAR-3 ovarian
OVCAR-4 ovarian = test system: OVCAR-4 ovarian
OVCAR-5 ovarian = test system: OVCAR-5 ovarian
OVCAR-8 ovarian = test system: OVCAR-8 ovarian
PC-3 prostate = test system: PC-3 prostate
RPMI-8226 leukemia = test system: RPMI-8226 leukemia
RXF 393 renal = test system: RXF 393 renal
SF-268 CNS = test system: SF-268 CNS
SF-295 CNS = test system: SF-295 CNS
SF-539 CNS = test system: SF-539 CNS
SK-MEL-2 melanoma = test system: SK-MEL-2 melanoma
SK-MEL-28 melanoma = test system: SK-MEL-28 melanoma
SK-MEL-5 melanoma = test system: SK-MEL-5 melanoma
SK-OV-3 ovarian = test system: SK-OV-3 ovarian
SN12C renal = test system: SN12C renal
SNB-19 CNS = test system: SNB-19 CNS
SNB-75 CNS = test system: SNB-75 CNS
SR leukemia = test system: SR leukemia
SW-620 colon = test system: SW-620 colon
T-47D breast = test system: T-47D breast
TK-10 renal = test system: TK-10 renal
U251 CNS = test system: U251 CNS
UACC-257 melanoma = test system: UACC-257 melanoma
UACC-62 melanoma = test system: UACC-62 melanoma
UO-31 renal = test system: UO-31 renal

`c1ccc2c(c1)[I+]c1ccccc1-2` was tested, and the GI50 (786-0 renal) was > 50 µM, the TGI (786-0 renal) was > 50 µM and the GI50 (A498 renal) was 27.7 µM. The TGI (A498 renal) was > 50 µM, the GI50 (A549 NSCLC) was > 50 µM and the TGI (A549 NSCLC) was > 50 µM. For the same compound, the GI50 (ACHN renal) was > 50 µM, the TGI (ACHN renal) was > 50 µM and the GI50 (BT-549 breast) was > 50 µM. The TGI (BT-549 breast) was > 50 µM, the GI50 (CAKI-1 renal) was > 50 µM and the TGI (CAKI-1 renal) was > 50 µM. The GI50 (CCRF-CEM leukemia) was > 50 µM, the TGI (CCRF-CEM leukemia) was > 50 µM and the GI50 (COLO 205 colon) was > 50 µM. The TGI (COLO 205 colon) was > 50 µM, the GI50 (DU-145 prostate) was 35.6 µM and the TGI (DU-145 prostate) was > 50 µM. The GI50 (EKVX NSCLC) was 19.4 µM, the TGI (EKVX NSCLC) was > 50 µM and the GI50 (HCC-2998 colon) was > 50 µM. The TGI (HCC-2998 colon) was > 50 µM, the GI50 (HCT-116 colon) was 38.4 µM and the TGI (HCT-116 colon) was > 50 µM. For the same compound, the GI50 (HCT-15 colon) was > 50 µM, the TGI (HCT-15 colon) was > 50 µM and the GI50 (HL-60(TB) leukemia) was > 50 µM. The TGI (HL-60(TB) leukemia) was > 50 µM, the GI50 (HOP-62 NSCLC) was 28 µM and the TGI (HOP-62 NSCLC) was > 50 µM. For the same compound, the GI50 (HOP-92 NSCLC) was 18.9 µM, the TGI (HOP-92 NSCLC) was > 50 µM and the GI50 (HS 578T breast) was > 50 µM. The TGI (HS 578T breast) was > 50 µM, the GI50 (HT29 colon) was 38.6 µM and the TGI (HT29 colon) was > 50 µM. For the same compound, the GI50 (IGROV1 ovarian) was > 50 µM, the TGI (IGROV1 ovarian) was > 50 µM and the GI50 (K-562 leukemia) was 28.2 µM. The TGI (K-562 leukemia) was > 50 µM, the GI50 (KM12 colon) was > 50 µM and the TGI (KM12 colon) was > 50 µM. The GI50 (LOX IMVI melanoma) was > 50 µM, the TGI (LOX IMVI melanoma) was > 50 µM and the GI50 (MALME-3M melanoma) was > 50 µM. For the same compound, the TGI (MALME-3M melanoma) was > 50 µM, the GI50 (MCF7 breast) was > 50 µM and the TGI (MCF7 breast) was > 50 µM. The GI50 (MDA-MB-231 breast) was 47.6 µM, the TGI (MDA-MB-231 breast) was > 50 µM and the GI50 (MDA-MB-435) was > 50 µM. For the same compound, the TGI (MDA-MB-435) was > 50 µM, the GI50 (MOLT-4 leukemia) was > 50 µM and the TGI (MOLT-4 leukemia) was > 50 µM. The GI50 (NCI-H226 lung) was > 50 µM, the TGI (NCI-H226 lung) was > 50 µM and the GI50 (NCI-H23 lung) was 22.9 µM. The TGI (NCI-H23 lung) was > 50 µM, the GI50 (NCI-H460 lung) was 33.9 µM and the TGI (NCI-H460 lung) was > 50 µM. The GI50 (NCI-H522 lung) was > 50 µM, the TGI (NCI-H522 lung) was > 50 µM and the GI50 (NCI/ADR-RES ovarian) was > 50 µM. For the same compound, the TGI (NCI/ADR-RES ovarian) was > 50 µM, the GI50 (OVCAR-3 ovarian) was > 50 µM and the TGI (OVCAR-3 ovarian) was > 50 µM. The GI50 (OVCAR-4 ovarian) was 21.6 µM, the TGI (OVCAR-4 ovarian) was > 50 µM and the GI50 (OVCAR-5 ovarian) was > 50 µM. For the same compound, the TGI (OVCAR-5 ovarian) was > 50 µM, the GI50 (OVCAR-8 ovarian) was > 50 µM and the TGI (OVCAR-8 ovarian) was > 50 µM. For the same compound, the GI50 (PC-3 prostate) was > 50 µM, the TGI (PC-3 prostate) was > 50 µM and the GI50 (RPMI-8226 leukemia) was 31.7 µM. For the same compound, the TGI (RPMI-8226 leukemia) was > 50 µM, the GI50 (RXF 393 renal) was > 50 µM and the TGI (RXF 393 renal) was > 50 µM. For the same compound, the GI50 (SF-268 CNS) was > 50 µM, the TGI (SF-268 CNS) was > 50 µM and the GI50 (SF-295 CNS) was 35 µM. The TGI (SF-295 CNS) was > 50 µM, the GI50 (SF-539 CNS) was 40.6 µM and the TGI (SF-539 CNS) was > 50 µM. The GI50 (SK-MEL-2 melanoma) was > 50 µM, the TGI (SK-MEL-2 melanoma) was > 50 µM and the GI50 (SK-MEL-28 melanoma) was > 50 µM. For the same compound, the TGI (SK-MEL-28 melanoma) was > 50 µM, the GI50 (SK-MEL-5 melanoma) was 24.3 µM and the TGI (SK-MEL-5 melanoma) was > 50 µM. The GI50 (SK-OV-3 ovarian) was > 50 µM, the TGI (SK-OV-3 ovarian) was > 50 µM and the GI50 (SN12C renal) was > 50 µM. For the same compound, the TGI (SN12C renal) was > 50 µM, the GI50 (SNB-19 CNS) was > 50 µM and the TGI (SNB-19 CNS) was > 50 µM. For the same compound, the GI50 (SNB-75 CNS) was 8.95 µM, the TGI (SNB-75 CNS) was > 50 µM and the GI50 (SR leukemia) was 19.4 µM. For the same compound, the TGI (SR leukemia) was > 50 µM, the GI50 (SW-620 colon) was > 50 µM and the TGI (SW-620 colon) was > 50 µM. For the same compound, the GI50 (T-47D breast) was > 50 µM, the TGI (T-47D breast) was > 50 µM and the GI50 (TK-10 renal) was > 50 µM. The TGI (TK-10 renal) was > 50 µM, the GI50 (U251 CNS) was 25.5 µM and the TGI (U251 CNS) was > 50 µM. The GI50 (UACC-257 melanoma) was > 50 µM, the TGI (UACC-257 melanoma) was > 50 µM and the GI50 (UACC-62 melanoma) was > 50 µM. The TGI (UACC-62 melanoma) was > 50 µM, the GI50 (UO-31 renal) was > 50 µM and the TGI (UO-31 renal) was > 50 µM.

Reference: PubChem BioAssay (NCI)
